In experiment [1] the test system is Puccinia triticina; synonym: Puccinia recondita f. sp. tritici (PUCCRT). Description: Wheat brown rust (PUCCRT) whole-plant fungicidal test. Conditions: topical, low volume (track spray) application, 121.5 g/H. The format is in vivo. How it is done: All fungicides were evaluated using the aforementioned method for their activity vs. all target diseases, unless stated otherwise. Wheat leaf blotch and brown rust activity were also evaluated using track spray applications, in which case the fungicides were formulated as EC formulations, containing 0.1% Trycol 5941 in the spray solutions. Wheat plants (variety Yuma) were grown from seed in a greenhouse in 50% mineral soil/50% soil-less Metro mix until the first leaf was fully emerged, with 7-10 seedlings per pot. These plants were inoculated with an aqueous spore suspension of Septoria tritici either prior to or after fungicide treatments. After inoculation the plants were kept in 100% relative humidity (one day in a dark dew chamber followed by two to three days in a lighted dew chamber at 20° C.) to permit spores to germinate and infect the leaf. The plants were then transferred to a greenhouse set at 20° C. for disease to develop. When disease symptoms were fully expressed on the 1st leaves of untreated plants, infection levels were assessed on a scale of 0 to 100 percent disease severity. Percent disease control was calculated using the ratio of disease severity on treated plants relative to untreated plants. Wheat plants (variety Yuma) were grown from seed in a greenhouse in 50% mineral soil/50% soil-less Metro mix until the first leaf was fully emerged, with 7-10 seedlings per pot. These plants were inoculated with an aqueous spore suspension of Puccinia triticina either prior to or after fungicide treatments. […] The plants were then transferred to a greenhouse set at 24° C. for disease to develop. Fungicide formulation, application and disease assessment followed the procedures as described in the Example A.

The subject of experiment [2] is Mycosphaerella graminicola; anamorph: Septoria tritici (SEPTTR). Description: Leaf blotch of wheat (SEPTTR) whole-plant fungicidal test. The class given is in vivo. The conditions noted are these: Zymoseptoria tritici, topical, low volume (track spray) application, 121.5 g/H. The method, then:
All fungicides were evaluated using the aforementioned method for their activity vs. all target diseases, unless stated otherwise. Wheat leaf blotch and brown rust activity were also evaluated using track spray applications, in which case the fungicides were formulated as EC formulations, containing 0.1% Trycol 5941 in the spray solutions. Wheat plants (variety Yuma) were grown from seed in a greenhouse in 50% mineral soil/50% soil-less Metro mix until the first leaf was fully emerged, with 7-10 seedlings per pot. These plants were inoculated with an aqueous spore suspension of Septoria tritici either prior to or after fungicide treatments. After inoculation the plants were kept in 100% relative humidity (one day in a dark dew chamber followed by two to three days in a lighted dew chamber at 20° C.) to permit spores to germinate and infect the leaf. The plants were then transferred to a greenhouse set at 20° C. for disease to develop. When disease symptoms were fully expressed on the 1st leaves of untreated plants, infection levels were assessed on a scale of 0 to 100 percent disease severity. Percent disease control was calculated using the ratio of disease severity on treated plants relative to untreated plants.

Setting [3] is: 24 h, 1 Day Protectant, read-out: Low Volume activity at 121.5 g/H PUCCRT 1DP (% disease control rating).
Where [4] appears, read: 72 h, 3 Day Curative, read-out: Low Volume activity at 121.5 g/H PUCCRT 3DC (% disease control rating).
The mark [5] stands for this setting: 24 h, 1 Day Protectant, read-out: Low Volume activity at 121.5 g/H SEPTTR 1DP (% disease control rating).
[6] abbreviates: 72 h, 3 Day Curative, read-out: Low Volume activity at 121.5 g/H SEPTTR 3DC (% disease control rating).

Structures are written as SMILES. Read-outs that look alike come from different tables or passages of the source.

In the case of `COc1ccnc(C(=O)N[C@H]2CCC[C@H](CCC(C)C)[C@@H](CCc3ccccc3)[C@H](C)OC2=O)c1OCOC(C)=O` [Compound 34], the pest or weed control at 121.5 g/ha was above 70% in experiment [1] (setting [3]), below 70% in experiment [1] (setting [4]), above 70% in experiment [2] (setting [5]) and above 70% in experiment [2] (setting [6]).

Take `CCOCC(=O)OCOc1c(OC)ccnc1C(=O)N[C@H]1CCC[C@H](CCC(C)C)[C@@H](CCc2ccccc2)[C@H](C)OC1=O` [Compound 35]: the pest or weed control at 121.5 g/ha in experiment [1] (setting [3]) is above 70%; in experiment [1] (setting [4]), below 70%; in experiment [2] (setting [5]), above 70%; in experiment [2] (setting [6]) it was above 70%.

Take `COc1ccnc(C(=O)N[C@H]2CCC[C@H](CCC(C)C)[C@@H](CCc3ccccc3)[C@H](C)OC2=O)c1OC(C)=O` [Compound 36]: the pest or weed control at 121.5 g/ha was above 70% in experiment [1] (setting [3]), below 70% in experiment [1] (setting [4]), above 70% in experiment [2] (setting [5]) and above 70% in experiment [2] (setting [6]).

For `CCC[C@H]1CCC[C@H](NC(=O)c2nccc(OC)c2OCOC(C)=O)C(=O)O[C@@H](C)[C@@H]1Cc1ccccc1` [Compound 37], the pest or weed control at 121.5 g/ha in experiment [1] (setting [3]), in experiment [1] (setting [4]), in experiment [2] (setting [5]) and in experiment [2] (setting [6]) was above 70% throughout.

Turning to `CCC[C@H]1CCC[C@H](NC(=O)c2nccc(OC)c2OC(C)=O)C(=O)O[C@@H](C)[C@@H]1Cc1ccccc1` [Compound 38], the pest or weed control at 121.5 g/ha in experiment [1] (setting [3]), in experiment [1] (setting [4]), in experiment [2] (setting [5]) and in experiment [2] (setting [6]) was above 70% each time.

In the case of `COc1ccnc(C(=O)N[C@H]2CCC[C@H](Cc3ccc(C(F)(F)F)cc3)[C@@H](Cc3ccc(F)cc3)[C@H](C)OC2=O)c1OCOC(C)=O` [Compound 39], the pest or weed control at 121.5 g/ha in experiment [1] (setting [3]) is below 70%; in experiment [1] (setting [4]), below 70%; in experiment [2] (setting [5]), above 70%; in experiment [2] (setting [6]), above 70%.

As to `COc1ccnc(C(=O)N[C@H]2CCC[C@H](Cc3ccc(C(F)(F)F)cc3)[C@@H](Cc3ccc(F)cc3)[C@H](C)OC2=O)c1OC(C)=O` [Compound 40], the pest or weed control at 121.5 g/ha in experiment [1] (setting [3]) is below 70%; in experiment [1] (setting [4]), below 70%; in experiment [2] (setting [5]), above 70%; in experiment [2] (setting [6]), below 70%.

Take `COc1ccnc(C(=O)N[C@H]2CCC[C@H](Cc3ccc(C(F)(F)F)cc3)[C@@H](Cc3ccc(F)cc3)[C@H](C)OC2=O)c1OCOC(=O)C(C)C` [Compound 41]: the pest or weed control at 121.5 g/ha in experiment [1] (setting [3]), in experiment [1] (setting [4]), in experiment [2] (setting [5]) and in experiment [2] (setting [6]) was below 70% throughout.

`COc1ccnc(C(=O)N[C@H]2CCC[C@H](CCC(C)C)[C@@H](C3CCCC3)[C@H](C)OC2=O)c1OCOC(C)=O` [Compound 42]: the pest or weed control at 121.5 g/ha was above 70% in experiment [1] (setting [3]), below 70% in experiment [1] (setting [4]), above 70% in experiment [2] (setting [5]) and above 70% in experiment [2] (setting [6]).

On to `COc1ccnc(C(=O)N[C@H]2CCC[C@H](CCC(C)C)[C@@H](C3CCCC3)[C@H](C)OC2=O)c1OC(C)=O` [Compound 43], for which the pest or weed control at 121.5 g/ha is above 70% in experiment [1] (setting [3]), below 70% in experiment [1] (setting [4]), above 70% in experiment [2] (setting [5]) and above 70% in experiment [2] (setting [6]).

Turning to `COc1ccnc(C(=O)N[C@H]2CCC[C@H](CCC(C)C)[C@@H](C3CCCC3)[C@H](C)OC2=O)c1OCOC(=O)C(C)C` [Compound 44], the pest or weed control at 121.5 g/ha in experiment [1] (setting [3]) was above 70%; in experiment [1] (setting [4]), below 70%; in experiment [2] (setting [5]), above 70%; in experiment [2] (setting [6]), above 70%.

Regarding `COc1ccnc(C(=O)N[C@H]2CCC[C@H](Cc3ccccc3)[C@@H](CCC(C)C)[C@H](C)OC2=O)c1OC(C)=O` [Compound 45], the pest or weed control at 121.5 g/ha in experiment [1] (setting [3]) was above 70%; in experiment [1] (setting [4]) it was below 70%; in experiment [2] (setting [5]), above 70%; in experiment [2] (setting [6]), above 70%.

`CCC[C@H]1CCC[C@H](NC(=O)c2nccc(OC)c2OC(C)=O)C(=O)O[C@@H](C)[C@@H]1Cc1ccc(F)cc1` [Compound 46]: the pest or weed control at 121.5 g/ha in experiment [1] (setting [3]), in experiment [1] (setting [4]), in experiment [2] (setting [5]) and in experiment [2] (setting [6]) was above 70% each time.

`COc1ccnc(C(=O)N[C@H]2CCC[C@H](Cc3ccccc3)[C@@H](CCC(C)C)[C@H](C)OC2=O)c1OCOC(C)=O` [Compound 47]: the pest or weed control at 121.5 g/ha is above 70% in experiment [1] (setting [3]), below 70% in experiment [1] (setting [4]), above 70% in experiment [2] (setting [5]) and above 70% in experiment [2] (setting [6]).

Turning to `CCC[C@H]1CCC[C@H](NC(=O)c2nccc(OC)c2OCOC(C)=O)C(=O)O[C@@H](C)[C@@H]1Cc1ccc(F)cc1` [Compound 48], the pest or weed control at 121.5 g/ha in experiment [1] (setting [3]), in experiment [1] (setting [4]), in experiment [2] (setting [5]) and in experiment [2] (setting [6]) was above 70% throughout.

`COc1ccnc(C(=O)N[C@H]2CCC[C@H](Cc3ccccc3)[C@@H](CCC(C)C)[C@H](C)OC2=O)c1OC(=O)C(C)C` [Compound 49]: the pest or weed control at 121.5 g/ha in experiment [1] (setting [3]) is below 70%; in experiment [1] (setting [4]) it was below 70%; in experiment [2] (setting [5]), above 70%; in experiment [2] (setting [6]), above 70%.

For the molecule `COc1ccnc(C(=O)N[C@H]2CCC[C@H](Cc3ccccc3)[C@@H](CCC(C)C)[C@H](C)OC2=O)c1OCOC(=O)C(C)C` [Compound 50], the pest or weed control at 121.5 g/ha in experiment [1] (setting [3]) was above 70%; in experiment [1] (setting [4]) it was below 70%; in experiment [2] (setting [5]), above 70%; in experiment [2] (setting [6]), above 70%.

Turning to `CCOCC(=O)OCOc1c(OC)ccnc1C(=O)N[C@H]1CCC[C@H](Cc2ccccc2)[C@@H](CCC(C)C)[C@H](C)OC1=O` [Compound 51], the pest or weed control at 121.5 g/ha in experiment [1] (setting [3]) was above 70%; in experiment [1] (setting [4]), below 70%; in experiment [2] (setting [5]), above 70%; in experiment [2] (setting [6]), above 70%.

Consider `COc1ccnc(C(=O)N[C@H]2CCC[C@H](Cc3ccccc3)[C@@H](c3ccccc3)[C@H](C)OC2=O)c1OCOC(C)=O` [Compound 52], for which the pest or weed control at 121.5 g/ha in experiment [1] (setting [3]) was above 70%; in experiment [1] (setting [4]) it was below 70%; in experiment [2] (setting [5]) it was above 70%; in experiment [2] (setting [6]) it was above 70%.

`COc1ccnc(C(=O)N[C@H]2CCC[C@H](Cc3ccccc3)[C@@H](c3ccccc3)[C@H](C)OC2=O)c1OC(C)=O` [Compound 53]: the pest or weed control at 121.5 g/ha in experiment [1] (setting [3]) is above 70%; in experiment [1] (setting [4]), below 70%; in experiment [2] (setting [5]), above 70%; in experiment [2] (setting [6]) it was above 70%.

On to `CCC[C@H]1CCC[C@H](NC(=O)c2nccc(OC)c2OCOC(C)=O)C(=O)O[C@@H](C)[C@@H]1c1ccccc1` [Compound 54], for which the pest or weed control at 121.5 g/ha in experiment [1] (setting [3]), in experiment [1] (setting [4]), in experiment [2] (setting [5]) and in experiment [2] (setting [6]) was above 70% in each case.
